Reference: patent publication US10538487B2, “Sulfonylureas and related compounds and use of same” (priority 2015, dated 2020)
Like-named read-outs stand apart in the source and are kept apart here.

Assay: Single dose pharmacokinetic study in mice (iv 4 mg/Kg, po 20 mg/Kg), plasma concentration post-dosing
Format: in vivo, mouse
Settings: male, C57BL/6, mouse, plasma, mouse; for concentration at 5 min: 5 min post dosing; for concentration at 0.25 h: 0.250 h post dosing; for concentration at 0.5 h: 0.500 h post dosing; for concentration at 1 h: 1.00 h post dosing; for concentration at 2 h: 2.00 h post dosing; for concentration at 4 h: 4.00 h post dosing; for concentration at 8 h: 8.00 h post dosing; for concentration at 24 h: 24.0 h post dosing
Protocol: This is advantageous leading to comparatively lower doses or less frequent administration. The procedure followed was: Male C57BL/6 mice were used at 7-9 weeks age with 3 animals per group. Mice were dosed with test compound using single intravenous bolus or oral gavage. Blood samples were taken via submandibular or saphenous vein for analysis of plasma concentrations of compound by LC-MS/MS at the following timepoints: IV (3 mice): 0.083, 0.25, 0.5, 1, 2, 4, 8 and 24 hours post dosing, PO (3 mice): 0.25, 0.5, 1, 2, 4, 8 and 24 hours post dosing. LC-MS/MS method for the quantitative determination of test compound in corresponding biological matrix was developed. […] The results are shown graphically in FIGS. 1A to 1C (MCC950) and FIGS. 2A to 2C (MCC7840).

concentration at 5 min (iv, 4 mg/kg, IV 4 mg/Kg, individual mice M1-M3, read-out: Plasma concentration, IV Time 0.0833 h): 47800 ng/mL
concentration at 5 min (iv, 4 mg/kg, IV 4 mg/Kg, mean of 3 mice, read-out: Plasma concentration, IV Time 0.0833 h, Mean IV): 42800 ng/mL
concentration at 0.25 h (iv, 4 mg/kg, IV 4 mg/Kg, individual mice M1-M3, read-out: Plasma concentration, IV Time 0.250 h): 28100 ng/mL
concentration at 0.25 h (iv, 4 mg/kg, IV 4 mg/Kg, mean of 3 mice, read-out: Plasma concentration, IV Time 0.250 h, Mean IV): 28900 ng/mL
concentration at 0.5 h (iv, 4 mg/kg, IV 4 mg/Kg, individual mice M1-M3, read-out: Plasma concentration, IV Time 0.500 h): 25200 ng/mL
concentration at 0.5 h (iv, 4 mg/kg, IV 4 mg/Kg, mean of 3 mice, read-out: Plasma concentration, IV Time 0.500 h, Mean IV): 25000 ng/mL
concentration at 1 h (iv, 4 mg/kg, IV 4 mg/Kg, individual mice M1-M3, read-out: Plasma concentration, IV Time 1.00 h): 19900 ng/mL
concentration at 1 h (iv, 4 mg/kg, IV 4 mg/Kg, mean of 3 mice, read-out: Plasma concentration, IV Time 1.00 h, Mean IV): 18700 ng/mL
concentration at 2 h (iv, 4 mg/kg, IV 4 mg/Kg, individual mice M1-M3, read-out: Plasma concentration, IV Time 2.00 h): 13300 ng/mL
concentration at 2 h (iv, 4 mg/kg, IV 4 mg/Kg, mean of 3 mice, read-out: Plasma concentration, IV Time 2.00 h, Mean IV): 16000 ng/mL
concentration at 4 h (iv, 4 mg/kg, IV 4 mg/Kg, individual mice M1-M3, read-out: Plasma concentration, IV Time 4.00 h): 6520 ng/mL
concentration at 4 h (iv, 4 mg/kg, IV 4 mg/Kg, mean of 3 mice, read-out: Plasma concentration, IV Time 4.00 h, Mean IV): 7890 ng/mL
concentration at 8 h (iv, 4 mg/kg, IV 4 mg/Kg, individual mice M1-M3, read-out: Plasma concentration, IV Time 8.00 h): 3490 ng/mL
concentration at 8 h (iv, 4 mg/kg, IV 4 mg/Kg, mean of 3 mice, read-out: Plasma concentration, IV Time 8.00 h, Mean IV): 3760 ng/mL
concentration at 24 h (iv, 4 mg/kg, IV 4 mg/Kg, individual mice M1-M3, read-out: Plasma concentration, IV Time 24.0 h): 149 ng/mL
concentration at 24 h (iv, 4 mg/kg, IV 4 mg/Kg, mean of 3 mice, read-out: Plasma concentration, IV Time 24.0 h, Mean IV): 134 ng/mL
AUC0-inf (iv, 4 mg/kg, IV 4 mg/Kg, individual mice M1-M3, read-out: AUC0-inf): 101 µg·h/mL
AUC(0-t) (iv, 4 mg/kg, IV 4 mg/Kg, individual mice M1-M3, read-out: AUC0-last): 100 µg·h/mL
C0 (iv, 4 mg/kg, IV 4 mg/Kg, individual mice M1-M3, read-out: C0): 62300 ng/mL
clearance (iv, 4 mg/kg, IV 4 mg/Kg, individual mice M1-M3, read-out: Cl): 0.659 mL/min/kg
MRT inf (iv, 4 mg/kg, IV 4 mg/Kg, individual mice M1-M3, read-out: MRT0-inf): 4.3 h
MRT last (iv, 4 mg/kg, IV 4 mg/Kg, individual mice M1-M3, read-out: MRT0-last): 4.11 h
half-life (iv, 4 mg/kg, IV 4 mg/Kg, individual mice M1-M3, read-out: T1/2 (converted)): 3.62 h
Vd (iv, 4 mg/kg, IV 4 mg/Kg, individual mice M1-M3, read-out: Vdss): 0.17 L/kg
AUC0-inf (iv, 4 mg/kg, IV 4 mg/Kg, mean of 3 mice, read-out: AUC0-inf, Mean IV): 108 µg·h/mL
AUC(0-t) (iv, 4 mg/kg, IV 4 mg/Kg, mean of 3 mice, read-out: AUC0-last, Mean IV): 107 µg·h/mL
clearance (iv, 4 mg/kg, IV 4 mg/Kg, mean of 3 mice, read-out: Cl, Mean IV): 0.621 mL/min/kg
MRT inf (iv, 4 mg/kg, IV 4 mg/Kg, mean of 3 mice, read-out: MRT0-inf, Mean IV): 4.29 h
MRT last (iv, 4 mg/kg, IV 4 mg/Kg, mean of 3 mice, read-out: MRT0-last, Mean IV): 4.13 h
half-life (iv, 4 mg/kg, IV 4 mg/Kg, mean of 3 mice, read-out: T1/2, Mean IV (converted)): 3.39 h
Vd (iv, 4 mg/kg, IV 4 mg/Kg, mean of 3 mice, read-out: Vdss, Mean IV): 0.16 L/kg
concentration at 0.25 h (po, 20 mg/kg, PO 20 mg/Kg, mean of 3 mice, read-out: Plasma concentration, PO Time 0.250 h, Mean PO): 60500 ng/mL
concentration at 0.5 h (po, 20 mg/kg, PO 20 mg/Kg, mean of 3 mice, read-out: Plasma concentration, PO Time 0.500 h, Mean PO): 50300 ng/mL
concentration at 1 h (po, 20 mg/kg, PO 20 mg/Kg, mean of 3 mice, read-out: Plasma concentration, PO Time 1.00 h, Mean PO): 42300 ng/mL
concentration at 2 h (po, 20 mg/kg, PO 20 mg/Kg, mean of 3 mice, read-out: Plasma concentration, PO Time 2.00 h, Mean PO): 42600 ng/mL
concentration at 4 h (po, 20 mg/kg, PO 20 mg/Kg, mean of 3 mice, read-out: Plasma concentration, PO Time 4.00 h, Mean PO): 26600 ng/mL
concentration at 8 h (po, 20 mg/kg, PO 20 mg/Kg, mean of 3 mice, read-out: Plasma concentration, PO Time 8.00 h, Mean PO): 18900 ng/mL
concentration at 24 h (po, 20 mg/kg, PO 20 mg/Kg, mean of 3 mice, read-out: Plasma concentration, PO Time 24.0 h, Mean PO): 1470 ng/mL
AUC0-inf (po, 20 mg/kg, PO 20 mg/Kg, individual mice M4-M6, read-out: AUC0-inf): 368 µg·h/mL
MRT last (po, 20 mg/kg, PO 20 mg/Kg, individual mice M4-M6, read-out: MRT0-last): 4.8 h
Tmax (po, 20 mg/kg, PO 20 mg/Kg, individual mice M4-M6, read-out: Tmax): 0.25 h
AUC0-inf (po, 20 mg/kg, PO 20 mg/Kg, mean of 3 mice, read-out: AUC0-inf, Mean PO): 362 µg·h/mL
AUC(0-t) (po, 20 mg/kg, PO 20 mg/Kg, mean of 3 mice, read-out: AUC0-last, Mean PO): 350 µg·h/mL
Cmax (po, 20 mg/kg, PO 20 mg/Kg, mean of 3 mice, read-out: Cmax, Mean PO): 60500 ng/mL
MRT inf (po, 20 mg/kg, PO 20 mg/Kg, mean of 3 mice, read-out: MRT0-inf, Mean PO): 7.52 h
SMILES: CC(C)n1ccc(S(=O)(=O)NC(=O)Nc2c3c(cc4c2CCC4)CCC3)n1 [MCC_007840_002]
